{"source": "patent USRE48461E1", "about": "“Modulation of androgen receptor expression” (Ionis Pharmaceuticals, Inc., priority 2012, dated 2021)", "key": {"[1]": {"test_system": "AR mRNA", "experiment": "Antisense inhibition of human AR in HuVEC cells, single concentration (electroporation, qRT-PCR RTS3559)", "type": "cell-based", "how_it_was_run": "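AR mRNA levels were measured with human primer-probe set RTS3559 and adjusted for total RNA (RIBOGREEN). Cells were HuVEC, with each antisense oligonucleotide delivered by electroporation at one concentration.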"}, "[2]": {"test_system": "AR mRNA", "experiment": "Dose-dependent antisense inhibition of human AR in HuVEC cells (electroporation, qRT-PCR RTS3559, IC50)", "type": "cell-based", "how_it_was_run": "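HuVEC cells dosed with antisense oligonucleotides by electroporation and treated approximately 16 hours. AR mRNA quantified by real-time qPCR with primer probe set RTS3559 and normalised to total RNA by RIBOGREEN; IC50 from dose-response.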"}, "[3]": {"conditions": "Table 34, 46.9 nM, HuVEC, electroporation, approximately 16 hours"}, "[4]": {"conditions": "Table 34, 187.5 nM, HuVEC, electroporation, approximately 16 hours"}, "[5]": {"conditions": "Table 34, 750.0 nM, HuVEC, electroporation, approximately 16 hours"}, "[6]": {"conditions": "Table 34, 3000.0 nM, HuVEC, electroporation, approximately 16 hours"}, "[7]": {"conditions": "Table 34, HuVEC, electroporation, approximately 16 hours"}, "[8]": {"conditions": "Table 29, 46.9 nM, HuVEC, electroporation, approximately 16 hours"}, "[9]": {"conditions": "Table 29, 187.5 nM, HuVEC, electroporation, approximately 16 hours"}, "[10]": {"conditions": "Table 29, 750.0 nM, HuVEC, electroporation, approximately 16 hours"}, "[11]": {"conditions": "Table 29, 3000.0 nM, HuVEC, electroporation, approximately 16 hours"}, "[12]": {"conditions": "Table 29, HuVEC, electroporation, approximately 16 hours"}, "[13]": {"conditions": "500 nM ASO, electroporation, ~24 h, Table 1"}, "[14]": {"conditions": "166.7 nM, HuVEC, ~16 h, Table 3"}, "[15]": {"conditions": "500.0 nM, HuVEC, ~16 h, Table 3"}, "[16]": {"conditions": "1500.0 nM, HuVEC, ~16 h, Table 3"}}, "note": "pIC50: −log10 of the molar value. Oligonucleotides are written 5' to 3', each unit as a sugar letter and its base; * is a phosphorothioate linkage, no mark a phosphodiester; rarer units and linkages stand in square brackets, end groups in braces. Plain capitals give the bases only. k = constrained ethyl (cEt); [5mC] = 5-methylcytosine; d = 2'-deoxy (DNA)"}
{"substance": "583917 (kT*k[5mC]*kG*d[5mC]*dG*dA*d[5mC]*dT*d[5mC]*dT*dG*dG*dT*kA*k[5mC]*kG; antisense) [compound 583917]", "values": [{"measurement": "% inhibition", "setting": "[1]; Table 21, 500 nM oligonucleotide, electroporation, approximately 24 hours, relative to untreated control", "result": 37, "unit": "%"}, {"measurement": "percent inhibition of AR, 46.9 nM", "setting": "[2]; [3]", "result": 6, "unit": "%"}, {"measurement": "percent inhibition of AR, 187.5 nM", "setting": "[2]; [4]", "result": 30, "unit": "%"}, {"measurement": "percent inhibition of AR, 750.0 nM", "setting": "[2]; [5]", "result": 50, "unit": "%"}, {"measurement": "percent inhibition of AR, 3000.0 nM", "setting": "[2]; [6]", "result": 70, "unit": "%"}, {"measurement": "pIC50", "setting": "[2]; [7]", "result": 6.19}]}
{"substance": "584157 (kT*kT*kG*dA*dT*dG*dG*dA*dA*dT*dG*d[5mC]*dT*kG*kA*kT; antisense) [compound 584157]", "values": [{"measurement": "% inhibition", "setting": "[1]; Table 24, 1,000 nM oligonucleotide, electroporation, approximately 24 hours, relative to untreated control", "result": 69, "unit": "%"}, {"measurement": "percent inhibition of AR, 46.9 nM", "setting": "[2]; Table 36, 46.9 nM, HuVEC, electroporation, approximately 16 hours", "result": 6, "unit": "%"}, {"measurement": "percent inhibition of AR, 187.5 nM", "setting": "[2]; Table 36, 187.5 nM, HuVEC, electroporation, approximately 16 hours", "result": 6, "unit": "%"}, {"measurement": "percent inhibition of AR, 750.0 nM", "setting": "[2]; Table 36, 750.0 nM, HuVEC, electroporation, approximately 16 hours", "result": 52, "unit": "%"}, {"measurement": "percent inhibition of AR, 3000.0 nM", "setting": "[2]; Table 36, 3000.0 nM, HuVEC, electroporation, approximately 16 hours", "result": 82, "unit": "%"}, {"measurement": "pIC50", "setting": "[2]; Table 36, HuVEC, electroporation, approximately 16 hours", "result": 6.23}]}
{"substance": "586224 (kT*kT*kG*kA*kT*dT*dT*dA*dA*dT*dG*dG*dT*kT*kG*k[5mC]; antisense) [compound 586224]", "values": [{"measurement": "% inhibition", "setting": "[1]; 1,000 nM ASO, ~24 h, Table 13", "result": 90, "unit": "%"}, {"measurement": "percent inhibition of AR", "setting": "[2]; 46.9 nM, HuVEC, ~16 h, Table 15", "result": 39, "unit": "%"}, {"measurement": "percent inhibition of AR", "setting": "[2]; 187.5 nM, HuVEC, ~16 h, Table 15", "result": 75, "unit": "%"}, {"measurement": "percent inhibition of AR", "setting": "[2]; 750.0 nM, HuVEC, ~16 h, Table 15", "result": 93, "unit": "%"}, {"measurement": "percent inhibition of AR", "setting": "[2]; 3000.0 nM, HuVEC, ~16 h, Table 15", "result": 98, "unit": "%"}, {"measurement": "pIC50", "setting": "[2]; HuVEC cells, electroporation", "result": 7.30}, {"measurement": "inhibition of AR mRNA at 46.9 nM", "setting": "[2]; HuVEC cells, electroporation, 46.9 nM ASO", "result": 39, "unit": "%"}, {"measurement": "inhibition of AR mRNA at 187.5 nM", "setting": "[2]; HuVEC cells, electroporation, 187.5 nM ASO", "result": 75, "unit": "%"}, {"measurement": "inhibition of AR mRNA at 750.0 nM", "setting": "[2]; HuVEC cells, electroporation, 750.0 nM ASO", "result": 93, "unit": "%"}, {"measurement": "inhibition of AR mRNA at 3000.0 nM", "setting": "[2]; HuVEC cells, electroporation, 3000.0 nM ASO", "result": 98, "unit": "%"}, {"measurement": "pIC50", "setting": "[2]; HuVEC, ~16 h, Table 15", "result": 7.30}]}
{"substance": "583638 (antisense kT*kG*kA*dT*d[5mC]*dT*d[5mC]*dT*dG*dG*d[5mC]*dT*d[5mC]*k[5mC]*kG*k[5mC]) [compound 583638]", "values": [{"measurement": "% inhibition", "setting": "[1]; 500 nM ASO, ~24 h, Table 17", "result": 51, "unit": "%"}, {"measurement": "percent inhibition of AR, 46.9 nM", "setting": "[2]; [8]", "result": 33, "unit": "%"}, {"measurement": "percent inhibition of AR, 187.5 nM", "setting": "[2]; [9]", "result": 64, "unit": "%"}, {"measurement": "percent inhibition of AR, 750.0 nM", "setting": "[2]; [10]", "result": 79, "unit": "%"}, {"measurement": "percent inhibition of AR, 3000.0 nM", "setting": "[2]; [11]", "result": 85, "unit": "%"}, {"measurement": "pIC50", "setting": "[2]; [12]", "result": 6.96}]}
{"substance": "549388 (kT*k[5mC]*k[5mC]*d[5mC]*dT*dT*d[5mC]*dA*dG*d[5mC]*dG*dG*d[5mC]*kT*k[5mC]*kT; antisense) [compound 549388]", "values": [{"measurement": "% inhibition", "setting": "[1]; [13]", "result": 88, "unit": "%"}, {"measurement": "percent inhibition of AR", "setting": "[2]; 55.6 nM, HuVEC, ~16 h, Table 3", "result": 15, "unit": "%"}, {"measurement": "percent inhibition of AR", "setting": "[2]; [14]", "result": 42, "unit": "%"}, {"measurement": "percent inhibition of AR", "setting": "[2]; [15]", "result": 36, "unit": "%"}, {"measurement": "percent inhibition of AR", "setting": "[2]; [16]", "result": 86, "unit": "%"}, {"measurement": "pIC50", "setting": "[2]; HuVEC, ~16 h, Table 3", "result": 6.37}]}
{"substance": "583998 (k[5mC]*kA*kT*dG*d[5mC]*d[5mC]*dG*d[5mC]*d[5mC]*dA*dG*dG*dG*kT*kA*k[5mC]; antisense) [compound 583998]", "values": [{"measurement": "% inhibition", "setting": "[1]; Table 22, 500 nM oligonucleotide, electroporation, approximately 24 hours, relative to untreated control", "result": 45, "unit": "%"}, {"measurement": "percent inhibition of AR, 46.9 nM", "setting": "[2]; [3]", "result": 4, "unit": "%"}, {"measurement": "percent inhibition of AR, 187.5 nM", "setting": "[2]; [4]", "result": 25, "unit": "%"}, {"measurement": "percent inhibition of AR, 750.0 nM", "setting": "[2]; [5]", "result": 38, "unit": "%"}, {"measurement": "percent inhibition of AR, 3000.0 nM", "setting": "[2]; [6]", "result": 70, "unit": "%"}, {"measurement": "pIC50", "setting": "[2]; [7]", "result": 6.05}]}
{"substance": "583700 (antisense kG*kA*kA*dG*dA*dG*dT*dT*d[5mC]*dA*dA*d[5mC]*dA*kG*kG*k[5mC]) [compound 583700]", "values": [{"measurement": "% inhibition", "setting": "[1]; 500 nM ASO, ~24 h, Table 18", "result": 36, "unit": "%"}, {"measurement": "percent inhibition of AR, 46.9 nM", "setting": "[2]; Table 31, 46.9 nM, HuVEC, electroporation, approximately 16 hours", "result": 14, "unit": "%"}, {"measurement": "percent inhibition of AR, 187.5 nM", "setting": "[2]; Table 31, 187.5 nM, HuVEC, electroporation, approximately 16 hours", "result": 34, "unit": "%"}, {"measurement": "percent inhibition of AR, 750.0 nM", "setting": "[2]; Table 31, 750.0 nM, HuVEC, electroporation, approximately 16 hours", "result": 57, "unit": "%"}, {"measurement": "percent inhibition of AR, 3000.0 nM", "setting": "[2]; Table 31, 3000.0 nM, HuVEC, electroporation, approximately 16 hours", "result": 71, "unit": "%"}, {"measurement": "pIC50", "setting": "[2]; Table 31, HuVEC, electroporation, approximately 16 hours", "result": 6.26}]}
{"substance": "549360 (kG*kG*kT*d[5mC]*dG*dA*dA*dG*dT*dG*d[5mC]*d[5mC]*d[5mC]*k[5mC]*k[5mC]*kT; antisense) [compound 549360]", "values": [{"measurement": "% inhibition", "setting": "[1]; [13]", "result": 89, "unit": "%"}, {"measurement": "percent inhibition of AR", "setting": "[2]; 55.6 nM, HuVEC, ~16 h, Table 3", "result": 44, "unit": "%"}, {"measurement": "percent inhibition of AR", "setting": "[2]; [14]", "result": 58, "unit": "%"}, {"measurement": "percent inhibition of AR", "setting": "[2]; [15]", "result": 79, "unit": "%"}, {"measurement": "percent inhibition of AR", "setting": "[2]; [16]", "result": 83, "unit": "%"}, {"measurement": "pIC50", "setting": "[2]; HuVEC, ~16 h, Table 3", "result": 6.94}]}
{"substance": "583609 (antisense k[5mC]*kA*kG*d[5mC]*dT*dA*dG*d[5mC]*dT*d[5mC]*dG*d[5mC]*d[5mC]*k[5mC]*kG*k[5mC]) [compound 583609]", "values": [{"measurement": "% inhibition", "setting": "[1]; 500 nM ASO, ~24 h, Table 17", "result": 51, "unit": "%"}, {"measurement": "percent inhibition of AR, 46.9 nM", "setting": "[2]; [8]", "result": 16, "unit": "%"}, {"measurement": "percent inhibition of AR, 187.5 nM", "setting": "[2]; [9]", "result": 48, "unit": "%"}, {"measurement": "percent inhibition of AR, 750.0 nM", "setting": "[2]; [10]", "result": 63, "unit": "%"}, {"measurement": "percent inhibition of AR, 3000.0 nM", "setting": "[2]; [11]", "result": 73, "unit": "%"}, {"measurement": "pIC50", "setting": "[2]; [12]", "result": 6.44}]}
